What all share (test): phosphoenolpyruvate titration of purified optical probe (fluorescence ratio)
Common to all, as to format: binding
What all share (conditions): phosphoenolpyruvate 0 to 10 mM, purified probe treated 10 minutes, ex 420/485 nm, em 528 nm

Experiment [1] has as its target T1, Thermus thermophilus TtPFK optical probe 254/255-TtPFK-I253G/Q254L/R255L/G256F-cpYFP-Y1P (Thermus thermophilus, UniProt P21777, form not given/G256F/I253G/Q254L/R255L).
T1 construct: the numbering corresponds to the full length of the phosphoenolpyruvate-sensitive polypeptide; His-tag; made in house; host or cells: E. coli BL21 (DE3)
How it is done:
(§1) • 1. The expression vectors (for example, a phosphoenolpyruvate optical probe expression vector based on pCDF.) were transformed into BL21 (DE3) cells, incubated inverted overnight, and the clones were picked from the plates into 250 mL Erlenmeyer flasks, placed in a shaker at 37 °C and incubated at 220 rpm to OD=0.4-0.8, then 1/1000 (V/V) of IPTG (1 M) was added to induce expression at 18 °C for 24-36 hours. • 2. Upon completion of inducible expression, cells were harvested by centrifugation at 4000 rpm for 30 min, resuspended in 50 mM phosphate buffer and disrupted ultrasonically until the broth were clear, centrifuged at 9600 rpm at 4 °C for 20 min. • 3. The centrifuged supernatant was used to obtain protein by purification through a self-packed nickel column affinity chromatography column, and the protein obtained after nickel column affinity chromatography was further used to obtain protein dissolved in 100 mM HEPES buffer (pH 7.4). • 4. After purified proteins were subjected to SDS-PAGE, probes were diluted to a protein solution having a final concentration of 0.2-5 µM using assay buffer (100 mm HEPES, 100 mM NaCl, pH 7.4). Phosphoenolpyruvate was formulated as a stock solution at a final concentration of 50 mM with the assay buffer (100 mM HEPES, 100 mM NaCl, pH 7.4). • 5. 100 µl 1 µM of protein solution was taken, incubated at 37 °C for 10 min, phosphoenolpyruvate was added for titration, and the fluorescence intensity of 528 nm emission after 420 nm and 485 nm fluorescence excitation of the protein was measured. The fluorescence excitation and emission determination of the samples were done using a multifunctional fluorescence microplate reader. • 6. 100 µl 1 µM of protein solution was taken, incubated at 37 °C for 10 min, and phosphoenolpyruvate was added to determine the absorption and fluorescence spectra of the proteins. Determination of the absorption and fluorescence spectra of the samples was done by spectrophotometer and spectrofluorometer.
(§2) The recombinant plasmids of the mutation library were transformed into BL21 (DE3) to induce expression, and the purified probe protein was subjected to phosphoenolpyruvate-responsive screening, dividing the detection signal of the fusion fluorescent protein containing 2 mM phosphoenolpyruvate by that of the fusion fluorescent protein without phosphoenolpyruvate. […]

Experiment [2] has as its target T2, Thermus thermophilus TtPFK optical probe 254/255-TtPFK-cpYFP variant, TtPFK I253N/Q254L/R255L/G256F, cpYFP Y1S/N246F (Thermus thermophilus, UniProt P21777, form not given/G256F/I253N/Q254L/R255L).
T2 construct: the numbering corresponds to the full length of the phosphoenolpyruvate-sensitive polypeptide; His-tag; made in house; host or cells: E. coli BL21 (DE3)
How it is done: as §1, §2

The target of experiment [3] is T3, Thermus thermophilus TtPFK optical probe 254/256-TtPFK-cpYFP variant, TtPFK I253S/Q254L/G256V/G257L, cpYFP Y1T/N246F (Thermus thermophilus, UniProt P21777, form not given/G256V/G257L/I253S/Q254L).
T3 construct: the numbering corresponds to the full length of the phosphoenolpyruvate-sensitive polypeptide; His-tag; made in house; host or cells: E. coli BL21 (DE3)
How it is done:
as §1, §2

In experiment [4] the target is T4, Thermus thermophilus TtPFK optical probe 254/255-TtPFK-cpYFP variant, TtPFK I253V/Q254A/R255F/G256Y, cpYFP N246F (Thermus thermophilus, UniProt P21777, form not given/G256Y/I253V/Q254A/R255F).
T4 construct: the numbering corresponds to the full length of the phosphoenolpyruvate-sensitive polypeptide; His-tag; made in house; host or cells: E. coli BL21 (DE3)
How it is done: as §1, §2

Experiment [5] deals with T5, Thermus thermophilus TtPFK optical probe 254/255-TtPFK-cpYFP variant, TtPFK Q254V/R255I/G256H, cpYFP N246W (Thermus thermophilus, UniProt P21777, form not given/G256H/Q254V/R255I).
T5 construct: the numbering corresponds to the full length of the phosphoenolpyruvate-sensitive polypeptide; His-tag; made in house; host or cells: E. coli BL21 (DE3)
How it is done: as §1, §2

The target in experiment [6] is T6, Thermus thermophilus TtPFK optical probe 254/256-TtPFK-cpYFP variant, TtPFK I253D/Q254L/G256V/G257L, cpYFP Y1T/N246F (Thermus thermophilus, UniProt P21777, form not given/G256V/G257L/I253D/Q254L).
T6 construct: the numbering corresponds to the full length of the phosphoenolpyruvate-sensitive polypeptide; His-tag; made in house; host or cells: E. coli BL21 (DE3)
As for the experimental part: as §1, §2

Experiment [7] addresses T7, Thermus thermophilus phosphofructokinase TtPFK (SEQ ID NO: 1) optical probe 254/255-TtPFK-cpYFP, no mutation, SEQ ID NO: 10 (Thermus thermophilus, UniProt P21777).
T7 construct: His-tag; made in house; host or cells: E. coli BL21 (DE3)
As for the experimental part:
as §1, §2

Experiment [8] has as its target T8, Thermus thermophilus TtPFK optical probe 254/256-TtPFK-I253Q/Q254L/G256V/G257L-cpYFP-Y1T/N246F (Thermus thermophilus, UniProt P21777, form not given/G256V/G257L/I253Q/Q254L).
T8 construct: the numbering corresponds to the full length of the phosphoenolpyruvate-sensitive polypeptide; His-tag; made in house; host or cells: E. coli BL21 (DE3)
As for the experimental part:
as §1, §2

The target of experiment [9] is T9, Thermus thermophilus TtPFK optical probe 254/255-TtPFK-cpYFP variant, TtPFK I253F/Q254L/R255L/G256F, cpYFP Y1G/N246F (Thermus thermophilus, UniProt P21777, form not given/G256F/I253F/Q254L/R255L).
T9 construct: the numbering corresponds to the full length of the phosphoenolpyruvate-sensitive polypeptide; His-tag; made in house; host or cells: E. coli BL21 (DE3)
How it is done: as §1, §2

The target of experiment [10] is T10, Thermus thermophilus phosphofructokinase TtPFK (SEQ ID NO: 1) optical probe 254/256-TtPFK-cpYFP, no mutation (Thermus thermophilus, UniProt P21777, form not given/R255N).
T10 construct: the numbering corresponds to the full length of the phosphoenolpyruvate-sensitive polypeptide; His-tag; made in house; host or cells: E. coli BL21 (DE3)
As for the experimental part: as §1, §2

Experiment [11] concerns the target T11, Thermus thermophilus TtPFK optical probe 254/255-TtPFK-cpYFP variant, TtPFK I253V/Q254L/R255F/G256Y, cpYFP Y1H/N246F (Thermus thermophilus, UniProt P21777, form not given/G256Y/I253V/Q254L/R255F).
T11 construct: His-tag; made in house; host or cells: E. coli BL21 (DE3)
As for the experimental part: as §1, §2

Experiment [12] deals with T12, Thermus thermophilus TtPFK optical probe 254/255-TtPFK-cpYFP variant, TtPFK I253V/Q254L/R255L/G256H, cpYFP Y1S (Thermus thermophilus, UniProt P21777, form not given/G256H/I253V/Q254L/R255L).
T12 construct: the numbering corresponds to the full length of the phosphoenolpyruvate-sensitive polypeptide; His-tag; made in house; host or cells: E. coli BL21 (DE3)
How it is done:
as §1, §2

Each structure is given as a SMILES string.

For the compound `C=C(OP(=O)(O)O)C(=O)O` [phosphoenolpyruvate, Phosphoenolpyruvate], the Kd is 30.9 µM in experiment [1]; 9.66 µM in [2]; 8.93 µM in experiment [3]; 32 µM in experiment [4]; 11.4 µM in [5]; 13.4 µM in experiment [6]. The Kd in [7] was 0.8 µM; in experiment [8] it was 13.1 µM; in experiment [9] it was 5.56 µM; in experiment [10], 2.15 µM; in experiment [11] it was 81.7 µM; in experiment [12], 5.64 µM.
